Series [1] concerns Leishmania amazonensis promastigotes, strain MHOM/BR/77/LTB0016. As to the kind of experiment: Antipromastigote activity assay (resazurin). The conditions noted are these: 72 h, mean ± SD from three independent experiments, read-out: Activity IC50 (µM/72 h), promastigote form of L. amazonensis. It counts as cell-based. Here is the method:
Initially, compounds 14 to 25 were subjected to preliminary in vitro screening against Leishmania amazonensis promastigotes, strain MHOM/BR/77/LTB0016. The 50% growth inhibitory concentration (IC50) was measured after 72 h of cultivation with each compound using a resazurin assay conducted in independent triplicate experiments. […] Leishmania amazonensis (MHOM/BR/77/LTB0016) was cultured as promastigotes at 26 °C using Schneider’s insect medium (Sigma-Aldrich, St Louis, MO, USA), supplemented with 10% heat-inactivated fetal calf serum (HIFCS), 100 μg/mL streptomycin, and 100 U/mL penicillin. The parasites were sustained up to the 10th passage, after which fresh cultures were derived from infected host animals. L. amazonensis promastigotes were cultured in Schneider’s insect medium with 10% HIFCS, as described above, with or without various concentrations of test substances. The initial cell density was 1.0 × 10^6 cells/mL, and the culture was kept at 26 °C for 72 h. Resazurin reduction was used to evaluate the cell viability. The concentration required to inhibit 50% of the promastigote activity (IC50) was calculated using logarithmic regression analysis via GraphPrism 5 software.
For orientation: Resazurin is reduced to fluorescent resorufin, in cell work by metabolically active cells.

Series [2] is described as follows: Cytotoxicity assay (resazurin). The series is classed as cell-based. The conditions noted are these: mouse, murine peritoneal macrophages, 0–200 µM tested, mean ± SD from three independent experiments. Here is the method: Murine peritoneal macrophages were collected by flushing the peritoneal cavity with 5 mL of RPMI 1640 medium containing 10% HIFCS, 2 mM L-glutamine, 1 mM pyruvate, 100 μg/mL streptomycin, and 100 U/mL penicillin. The macrophage suspension was adjusted to 1.0 × 10^6 cells/mL and then plated in triplicate in 96-well plates (Falcon Co., Franklin Lakes, NJ, USA). Cultures were incubated at 37 °C in a 5% CO2 environment for 1 h. Nonadherent cells were subsequently removed, and the remaining cells were exposed to varying concentrations of test compounds (0–200 μM) for 72 h. Viability was assessed using a resazurin assay, and the concentration that caused 50% cytotoxicity (CC50) was determined using logarithmic regression analysis with GraphPrism 5 software.

Series [3] relates to intracellular amastigote form of Leishmania amazonensis. Kind of series: Antiamastigote activity assay (infected peritoneal macrophages, infection index). The series is classed as cell-based. The conditions noted are these: Macrophage, 72 h, L. amazonensis in murine macrophages, mean ± SD from three independent experiments, read-out: Intracellular Amastigotes IC50 (µM/72 h). Here is the method:
Resident peritoneal macrophages were seeded in RPMI medium (Sigma-Aldrich) at 1 × 10^6 cells/mL (0.4 mL/well) on Lab-Tek eight-chamber slides (Nunc) and incubated at 37 °C in 5% CO2 for 1 h. After this period, nonadherent cells were removed, and the adherent macrophages were co-cultured with L. amazonensis promastigotes at a 5:1 parasite-to-cell ratio. After 4 h, the monolayers were washed to eliminate free parasites. Cells were then treated with different concentrations of the compounds and incubated for 72 h at 37 °C in 5% CO2. Following incubation, the slides were stained using the Instant Prov hematological dye (Newprov, Curitiba, Brazil), and antileishmanial activity was assessed microscopically. Amastigote numbers were determined by counting at least 100 macrophages per sample, and the results were expressed as an infection index (II), calculated as: II = (percentage of infected cells) × (number of amastigotes/total macrophages). Dose–response curves for the antiamastigote activity were generated using nonlinear regression in GraphPad Prism 5.0, and IC50 values were calculated.

Series [4] shares this test system. On the set-up: method as in PMID 21555166, PMID 20833057. The conditions noted are these: previously reported HIT; read-out: IC50 for the intracellular amastigote form of L. amazonensis; cited from earlier work.

Read-outs that look alike come from different tables or passages of the source.

By CC50 is commonly meant the concentration giving 50% cytotoxicity. Lower therefore signals greater toxicity to the cells. For `CC1(Cc2ccccc2)CC(C(=O)Nc2ccc(Br)cn2)=C(c2ccc(C(N)=NO)cc2)O1` (stereo not shown) [Compound 14, 5-Benzyl-N-(5-bromopyridin-2-yl)-2-(4-(N′-hydroxycarbamimidoyl)phenyl)-5-methyl-4,5-dihydrofuran-3-carboxamide], the IC50 in series [1] worked out at 15 ± 1.03 µM; in series [3], 0.5 ± 0.15 µM. The same compound returned a cytotoxic concentration (CC50) at 72 h in series [2] of 171.5 ± 1.19 µM. With `CC1(Cc2ccccc2)CC(C(=O)Nc2ccc(Cl)cn2)=C(c2ccc(C(N)=NO)cc2)O1` (stereo not shown) [Compound 15, 5-Benzyl-N-(5-chloropyridin-2-yl)-2-(4-(N′-hydroxycarbamimidoyl)phenyl)-5-methyl-4,5-dihydrofuran-3-carboxamide], the IC50 in series [1] worked out at 16 ± 1.03 µM; in series [3], 0.6 ± 0.2 µM. For the same compound, in series [2], the half-maximal cytotoxic concentration (CC50) at 72 h was over 200 µM. On the same counts, the results for `Cc1ccc(NC(=O)C2=C(c3ccc(C(N)=NO)cc3)OC(C)(Cc3ccccc3)C2)nc1` (stereo not shown) [Compound 16, 5-Benzyl-2-(4-(N′-hydroxycarbamimidoyl)phenyl)-5-methyl-N-(5-methylpyridin-2-yl)-4,5-dihydrofuran-3-carboxamide] are 17 ± 1.02 µM, 0.3 ± 0.07 µM and over 200 µM. Take `CC1(Cc2ccccc2)CC(C(=O)Nc2ccccn2)=C(c2ccc(C(N)=NO)cc2)O1` (stereo not shown) [Compound 17, 5-Benzyl-2-(4-(N′-hydroxycarbamimidoyl)phenyl)-5-methyl-N-(pyridin-2-yl)-4,5-dihydrofuran-3-carboxamide]: in series [1], the IC50 is 22.4 ± 1.02 µM. As for `CC1(Cc2ccccc2)CC(C(=O)Nc2ccncc2)=C(c2ccc(C(N)=NO)cc2)O1` (stereo not shown) [Compound 18, 5-Benzyl-2-(4-(N′-hydroxycarbamimidoyl)phenyl)-5-methyl-N-(pyridin-4-yl)-4,5-dihydrofuran-3-carboxamide], in series [1], the IC50 was found to be 23.5 ± 1.04 µM. On the same count and under the same terms, under `CC1(Cc2ccccc2)CC(C(=O)Nc2ccccc2)=C(c2ccc(C(N)=NO)cc2)O1` (stereo not shown) [Compound 19, 5-Benzyl-2-(4-(N′-hydroxycarbamimidoyl)phenyl)-5-methyl-N-phenyl-4,5-dihydrofuran-3-carboxamide] stands 23.8 ± 1.02 µM; under `CC1(Cc2ccccc2)CC(C(=O)Nc2ccc(F)cc2)=C(c2ccc(C(N)=NO)cc2)O1` (stereo not shown) [Compound 20, 5-Benzyl-N-(4-fluorophenyl)-2-(4-(N′-hydroxycarbamimidoyl)phenyl)-5-methyl-4,5-dihydrofuran-3-carboxamide], 23.8 ± 1.02 µM; under `CC1(Cc2ccccc2)CC(C(=O)NCc2ccc(C(F)(F)F)cc2)=C(c2ccc(C(N)=NO)cc2)O1` (stereo not shown) [Compound 21, 5-Benzyl-2-(4-(N′-hydroxycarbamimidoyl)phenyl)-5-methyl-N-(4-(trifluoromethyl)benzyl)-4,5-dihydrofuran-3-carboxamide], 26.4 ± 1.02 µM. As for `CC1(Cc2ccccc2)CC(C(=O)Nc2cccnn2)=C(c2ccc(C(N)=NO)cc2)O1` (stereo not shown) [Compound 22, 5-Benzyl-2-(4-(N′-hydroxycarbamimidoyl)phenyl)-5-methyl-N-(pyridazin-3-yl)-4,5-dihydrofuran-3-carboxamide], the IC50 in series [1] stood at 29.9 ± 1.02 µM.

Consider `CC1(Cc2ccccc2)CC(C(=O)Nc2ccc(Cl)nn2)=C(c2ccc(C(N)=NO)cc2)O1` (stereo not shown) [Compound 23, 5-Benzyl-N-(6-chloropyridazin-3-yl)-2-(4-(N′-hydroxycarbamimidoyl)phenyl)-5-methyl-4,5-dihydrofuran-3-carboxamide], for which the IC50 in series [1] turned out to be 36.4 ± 1.03 µM.

With `CC1(Cc2ccccc2)CC(C(=O)Nc2cnccn2)=C(c2ccc(C(N)=NO)cc2)O1` (stereo not shown) [Compound 24, 5-Benzyl-2-(4-(N′-hydroxycarbamimidoyl)phenyl)-5-methyl-N-(pyrazin-2-yl)-4,5-dihydrofuran-3-carboxamide], in series [1], the IC50 was determined as 39.4 ± 1.02 µM. On the same count and under the same terms, as for `Cc1cc(NC(=O)C2=C(c3ccc(C(N)=NO)cc3)OC(C)(Cc3ccccc3)C2)nn1C` (stereo not shown) [Compound 25, 5-Benzyl-N-(1,5-dimethyl-1H-pyrazol-3-yl)-2-(4-(N′-hydroxycarbamimidoyl)phenyl)-5-methyl-4,5-dihydrofuran-3-carboxamide], the figure is 52.5 ± 1.03 µM. Take `CC1(Cc2ccccc2)CC(S(=O)(=O)c2ccc(F)cc2)=C(c2ccc(C(N)=NO)cc2)O1` (stereo not shown) [HIT, 4-(5-benzyl-3-((4-fluorophenyl)sulfonyl)-5-methyl-4,5-dihydrofuran-2-yl)-N′-hydroxybenzimidamide]: the IC50 in series [4] was 7.9 ± 1.1 µM.

The values above are taken from article PMC11597885, “Enhancing Antileishmanial Activity of Amidoxime-Based Compounds Bearing a 4,5-Dihydrofuran Scaffold: In Vitro Screening Against Leishmania amazonensis” (Molecules, 2024).
